Test results published in patent US20250325562A1, “Intravenous Ganaxolone Formulations and Methods of Use in Treating Status Epilepticus and Other Seizure Disorders” (MARINUS PHARMACEUTICALS, INC., priority 2015, published 2025).

Assays:
[1] = Phase solubility of ganaxolone in aqueous CAPTISOL solutions, HPLC; assay type: physicochemical; conditions: for Ganaxolone conc. by HPLC: 42 hours equilibrium
Procedure: Ganaxolone solubility in aqueous CAPTISOL solution was first determined by constructing a phase solubility diagram. Excess ganaxolone was shaken in aqueous CAPTISOL solutions of known concentrations for 42 hours to reach equilibrium. The ganaxolone solution was filtered into HPLC vials through 0.45 μm syringe filters. The filtrates were assayed for ganaxolone concentration by HPLC. Moles of ganaxolone in solution against moles of CAPTISOL added were plotted.

[2] = Ganaxolone concentration reached in 30% Captisol solutions (with additives or dry mixing), HPLC; assay type: physicochemical
Procedure: 500 μl of 10% aqueous Polysorbate 80 solution in a 20 ml scintillation vial were combined with powdered ganaxolone (50 mg). The mixture was stirred to wet the ganaxolone. Solid Captisol (3.2 g), sufficient to form a 30% Captisol solution, was then added to the vial and the vial contents were mixed. Deionized water (8.0 g) was then added and the mixture was vigorously stirred at room temperature overnight to obtain a hazy solution. An aliquot was filtered through 0.2 μm syringe filter and ganaxolone concentration was assayed by HPLC to be 4.28 mg/ml.
Ganaxolone was vigorously stirred in 30% Captisol in the presence of 10% v/v ethanol overnight to obtain a 3.16 mg/ml ganaxolone solution. • (b) Ganaxolone-30% Captisol solution containing glycerin
Ganaxolone was vigorously stirred in 30% Captisol in the presence of 10% v/v glycerin overnight to obtain a 3.45 mg/ml ganaxolone solution. • (c) Ganaxolone-30% Captisol solution containing propylene glycol
Ganaxolone was vigorously stirred in 30% Captisol in the presence of 10% v/v propylene glycol overnight to obtain a 2.53 mg/ml ganaxolone solution.
Powdered ganaxolone (125 mg) was charged into 100 ml beaker. Captisol powder (7.9 g) was then added to the beaker. The mixture was mixed by stirring with a magnetic stir bar for 5 min. Deionized water (20.1 g) was weighed into a plastic cup. About half of the water was added into the beaker and the contents were vigorously stirred for 30 minutes to obtain a homogeneous mixture. The remaining water was added and the beaker was covered with paraffin film.

[3] = cited from earlier work

Compound: CC(=O)[C@H]1CC[C@H]2[C@@H]3CC[C@H]4C[C@](C)(O)CC[C@]4(C)[C@H]3CC[C@]12C [Ganaxolone, 3α-hydroxy, 3β-methyl-5α-pregnan-20-one]
- Ganaxolone conc. ([1]; CAPTISOL 0 mg/mL): 0 mM
- Ganaxolone conc. by HPLC ([1]; CAPTISOL 0 mg/mL): Not detectable
- Ganaxolone conc. ([1]; CAPTISOL 25 mg/mL (0.0116 M)): 1.3 mM
- Ganaxolone conc. by HPLC ([1]; CAPTISOL 25 mg/mL (0.0116 M)): 0.43 mg/mL
- Ganaxolone conc. ([1]; CAPTISOL 50 mg/mL (0.0231 M)): 2.7 mM
- Ganaxolone conc. by HPLC ([1]; CAPTISOL 50 mg/mL (0.0231 M)): 0.88 mg/mL
- Ganaxolone conc. ([1]; CAPTISOL 100 mg/mL (0.0462 M)): 5.6 mM
- Ganaxolone conc. by HPLC ([1]; CAPTISOL 100 mg/mL (0.0462 M)): 1.86 mg/mL
- Ganaxolone conc. ([1]; CAPTISOL 200 mg/mL (0.0925 M)): 10.9 mM
- Ganaxolone conc. by HPLC ([1]; CAPTISOL 200 mg/mL (0.0925 M)): 3.63 mg/mL
- Ganaxolone conc. ([1]; CAPTISOL 400 mg/mL (0.185 M)): 23.1 mM
- Ganaxolone conc. by HPLC ([1]; CAPTISOL 400 mg/mL (0.185 M)): 7.68 mg/mL
- ganaxolone concentration by HPLC ([2]; 30% Captisol with Polysorbate 80, stirred overnight at room temperature, 0.2 μm filtered): 4.28 mg/mL
- ganaxolone concentration of solution ([2]; 30% Captisol, 10% v/v ethanol, stirred overnight): 3.16 mg/mL
- ganaxolone concentration of solution ([2]; 30% Captisol, 10% v/v glycerin, stirred overnight): 3.45 mg/mL
- ganaxolone concentration of solution ([2]; 30% Captisol, 10% v/v propylene glycol, stirred overnight): 2.53 mg/mL
- ganaxolone concentration after prolonged stirring ([2]; 30% Captisol, dry mixing, after 90 hours of stirring): unchanged
- ganaxolone concentration of solution ([2]; 30% Captisol, prior dry mixing of ganaxolone and Captisol, stirred overnight at room temperature): 4.61 mg/mL
- half-life ([3]; human plasma following oral administration): approximately 20 hours
- Tmax ([3]; therapeutic blood levels are reached quickly): short
